Source: US7820623B2 (priority 2006, dated 2010)
Bridge positions count the residues as written; N and C are the ends. Square brackets hold non-standard residues; d marks the D form. Peptide text beside a SMILES is read from it. 1Nal = N[C@@H](Cc1cccc2ccccc12)C(=O)O

Legend:
[1] = system: thapsigargin-induced IFN-g production in human whole blood; format: cell-based; conditions: read-out: Analogue Activity (IC50) WB/IFNg
[2] = system: thapsigargin-induced IL-2 production in human whole blood; conditions: read-out: Analogue Activity (IC50) WB/IL-2

Compound | IC50 [1] | IC50 [2]
CC[C@H](C)[C@@H]1NC(=O)[C@H](CCCCN)NC(=O)[C@@H](NC(=O)[C@H](CCCCN)NC(=O)[C@@H](NC(=O)[C@H](CC(N)=O)NC(=O)[C@@H](NC(=O)[C@@H](NC(=O)[C@@H](NC(=O)CN)C(C)C)[C@@H](C)CC)[C@@H](C)CC)C(C)C)CSSC[C@@H]2NC(=O)[C@H](CCCCN)NC(=O)[C@H](Cc3cccc4ccccc34)NC(=O)[C@H](Cc3ccccc3)NC(=O)[C@H](CCCNC(=N)N)NC(=O)[C@H](CCSC)NC(=O)CNC(=O)[C@H](C)NC(=O)[C@H](CCCCN)NC(=O)[C@H](CCCCN)NC(=O)[C@@H]3CSSC[C@@H](C(=O)N[C@H](C(=O)N4CCC[C@H]4C(=O)N[C@@H](CCCCN)C(=O)O)[C@@H](C)O)NC(=O)[C@H](Cc4c[nH]cn4)NC(=O)[C@H](CSSC[C@H](NC(=O)[C@H](CCC(N)=O)NC(=O)[C@H](CCCNC(=N)N)NC(=O)[C@H](CO)NC1=O)C(=O)N[C@@H](CC(C)C)C(=O)N[C@@H](CCC(=O)O)C(=O)N1CCC[C@H]1C(=O)N3)NC(=O)[C@H](CCCCN)NC(=O)CNC(=O)[C@H](CC(N)=O)NC(=O)[C@H](CCSC)NC2=O [G26Nal] (H-GVIINVKCKISRQCLEPCKKAGMRF[1Nal]KCMNGKCHCTPK-OH; disulfide 8-28, 14-33, 18-35) | 10.7 nM | 9.9 nM
CC[C@H](C)[C@@H]1NC(=O)[C@H](CCCCN)NC(=O)[C@@H](NC(=O)[C@H](CCCCN)NC(=O)[C@@H](NC(=O)[C@H](CC(N)=O)NC(=O)[C@H](CCC(=O)O)NC(=O)[C@@H](NC(=O)[C@@H](NC(=O)CN)C(C)C)[C@@H](C)CC)C(C)C)CSSC[C@@H]2NC(=O)[C@H](CCCCN)NC(=O)CNC(=O)[C@H](Cc3ccccc3)NC(=O)[C@H](CCCNC(=N)N)NC(=O)[C@H](CCSC)NC(=O)CNC(=O)[C@H](C)NC(=O)[C@H](CCCCN)NC(=O)[C@H](CCCCN)NC(=O)[C@@H]3CSSC[C@@H](C(=O)N[C@H](C(=O)N4CCC[C@H]4C(=O)N[C@@H](CCCCN)C(=O)O)[C@@H](C)O)NC(=O)[C@H](Cc4c[nH]cn4)NC(=O)[C@H](CSSC[C@H](NC(=O)[C@H](CCC(N)=O)NC(=O)[C@H](CCCNC(=N)N)NC(=O)[C@H](CO)NC1=O)C(=O)N[C@@H](CC(C)C)C(=O)N[C@@H](CCC(=O)O)C(=O)N1CCC[C@H]1C(=O)N3)NC(=O)[C@H](CCCCN)NC(=O)CNC(=O)[C@H](CC(N)=O)NC(=O)[C@H](CCSC)NC2=O [I4E] (H-GVIENVKCKISRQCLEPCKKAGMRFGKCMNGKCHCTPK-OH; disulfide 8-28, 14-33, 18-35) | 0.191 nM | 0.218 nM
CC[C@H](C)[C@@H]1NC(=O)[C@H](CCCCN)NC(=O)[C@@H](NC(=O)[C@H](CCCCN)NC(=O)[C@@H](NC(=O)[C@H](CC(N)=O)NC(=O)[C@H](CCCNC(=N)N)NC(=O)[C@@H](NC(=O)[C@@H](NC(=O)CN)C(C)C)[C@@H](C)CC)C(C)C)CSSC[C@@H]2NC(=O)[C@H](CCCCN)NC(=O)CNC(=O)[C@H](Cc3ccccc3)NC(=O)[C@H](CCCNC(=N)N)NC(=O)[C@H](CCSC)NC(=O)CNC(=O)[C@H](C)NC(=O)[C@H](CCCCN)NC(=O)[C@H](CCCCN)NC(=O)[C@@H]3CSSC[C@@H](C(=O)N[C@H](C(=O)N4CCC[C@H]4C(=O)N[C@@H](CCCCN)C(=O)O)[C@@H](C)O)NC(=O)[C@H](Cc4c[nH]cn4)NC(=O)[C@H](CSSC[C@H](NC(=O)[C@H](CCC(N)=O)NC(=O)[C@H](CCCNC(=N)N)NC(=O)[C@H](CO)NC1=O)C(=O)N[C@@H](CC(C)C)C(=O)N[C@@H](CCC(=O)O)C(=O)N1CCC[C@H]1C(=O)N3)NC(=O)[C@H](CCCCN)NC(=O)CNC(=O)[C@H](CC(N)=O)NC(=O)[C@H](CCSC)NC2=O [I4R] (H-GVIRNVKCKISRQCLEPCKKAGMRFGKCMNGKCHCTPK-OH; disulfide 8-28, 14-33, 18-35) | 0.175 nM | 0.168 nM
CC[C@H](C)[C@@H]1NC(=O)[C@H](CCCCN)NC(=O)[C@@H](NC(=O)[C@H](CCC(=O)O)NC(=O)[C@@H](NC(=O)[C@H](CC(N)=O)NC(=O)[C@@H](NC(=O)[C@@H](NC(=O)[C@@H](NC(=O)CN)C(C)C)[C@@H](C)CC)[C@@H](C)CC)C(C)C)CSSC[C@@H]2NC(=O)[C@H](CCCCN)NC(=O)CNC(=O)[C@H](Cc3ccccc3)NC(=O)[C@H](CCCNC(=N)N)NC(=O)[C@H](CCSC)NC(=O)CNC(=O)[C@H](C)NC(=O)[C@H](CCCCN)NC(=O)[C@H](CCCCN)NC(=O)[C@@H]3CSSC[C@@H](C(=O)N[C@H](C(=O)N4CCC[C@H]4C(=O)N[C@@H](CCCCN)C(=O)O)[C@@H](C)O)NC(=O)[C@H](Cc4c[nH]cn4)NC(=O)[C@H](CSSC[C@H](NC(=O)[C@H](CCC(N)=O)NC(=O)[C@H](CCCNC(=N)N)NC(=O)[C@H](CO)NC1=O)C(=O)N[C@@H](CC(C)C)C(=O)N[C@@H](CCC(=O)O)C(=O)N1CCC[C@H]1C(=O)N3)NC(=O)[C@H](CCCCN)NC(=O)CNC(=O)[C@H](CC(N)=O)NC(=O)[C@H](CCSC)NC2=O [K7E] (H-GVIINVECKISRQCLEPCKKAGMRFGKCMNGKCHCTPK-OH; disulfide 8-28, 14-33, 18-35) | 0.068 nM | 0.058 nM
CC[C@H](C)[C@@H]1NC(=O)[C@H](CCCCN)NC(=O)[C@@H](NC(=O)[C@H](CCCCN)NC(=O)[C@@H](NC(=O)[C@H](CC(N)=O)NC(=O)[C@@H](NC(=O)[C@@H](NC(=O)[C@@H](NC(=O)CN)C(C)C)[C@@H](C)CC)[C@@H](C)CC)C(C)C)CSSC[C@@H]2NC(=O)[C@H](CCCCN)NC(=O)CNC(=O)[C@H](Cc3ccccc3)NC(=O)[C@H](CCCNC(=N)N)NC(=O)[C@H](CCSC)NC(=O)CNC(=O)[C@H](C)NC(=O)[C@H](CCCCN)NC(=O)[C@H](CCCCN)NC(=O)[C@@H]3CSSC[C@@H](C(=O)N[C@H](C(=O)N4CCC[C@H]4C(=O)N[C@@H](CCCCN)C(=O)O)[C@@H](C)O)NC(=O)[C@H](Cc4c[nH]cn4)NC(=O)[C@H](CSSC[C@H](NC(=O)[C@H](CCC(N)=O)NC(=O)[C@H](CCC(=O)O)NC(=O)[C@H](CO)NC1=O)C(=O)N[C@@H](CC(C)C)C(=O)N[C@@H](CCC(=O)O)C(=O)N1CCC[C@H]1C(=O)N3)NC(=O)[C@H](CCCCN)NC(=O)CNC(=O)[C@H](CC(N)=O)NC(=O)[C@H](CCSC)NC2=O [R12E] (H-GVIINVKCKISEQCLEPCKKAGMRFGKCMNGKCHCTPK-OH; disulfide 8-28, 14-33, 18-35) | 2 nM | 1.79 nM
CC[C@H](C)[C@@H]1NC(=O)[C@H](CCCCN)NC(=O)[C@@H](NC(=O)[C@H](CCCCN)NC(=O)[C@@H](NC(=O)[C@H](CC(N)=O)NC(=O)[C@@H](NC(=O)[C@@H](NC(=O)[C@@H](NC(=O)CN)C(C)C)[C@@H](C)CC)[C@@H](C)CC)C(C)C)CSSC[C@@H]2NC(=O)[C@H](CCCCN)NC(=O)CNC(=O)[C@H](Cc3ccccc3)NC(=O)[C@H](CCCNC(=N)N)NC(=O)[C@H](CCSC)NC(=O)CNC(=O)[C@H](C)NC(=O)[C@H](CCCCN)NC(=O)[C@H](CCCCN)NC(=O)[C@@H]3CSSC[C@@H](C(=O)N[C@H](C(=O)N[C@@H](Cc4cccc5ccccc45)C(=O)N[C@@H](CCCCN)C(=O)O)[C@@H](C)O)NC(=O)[C@H](Cc4c[nH]cn4)NC(=O)[C@H](CSSC[C@H](NC(=O)[C@H](CCC(N)=O)NC(=O)[C@H](CCCNC(=N)N)NC(=O)[C@H](CO)NC1=O)C(=O)N[C@@H](CC(C)C)C(=O)N[C@@H](CCC(=O)O)C(=O)N1CCC[C@H]1C(=O)N3)NC(=O)[C@H](CCCCN)NC(=O)CNC(=O)[C@H](CC(N)=O)NC(=O)[C@H](CCSC)NC2=O [P37Nal] (H-GVIINVKCKISRQCLEPCKKAGMRFGKCMNGKCHCT[1Nal]K-OH; disulfide 8-28, 14-33, 18-35) | 3.04 nM | 1.76 nM
